We go through 1 molecule from patent EP0598011B1, “ECDYSTEROID DEPENDENT REGULATION OF GENES IN MAMMALIAN CELLS” (GENENTECH, INC., priority 1991, dated 1993).

What all share (assay type): cell-based
One series addresses T1, G"E"Ec (UniProt P06536+P34021, G458E/S459G).
T1 construct: expressed in transfected cells
The experiment in a line: Induction of ERE reporter E4M-77CO by chimeric receptor G"E"Ec. The note with it: cells incubated 48 hrs. On the procedure: Figure. 6. Induction of […] (EREs) by chimeric receptors. Cells were transfected with expression plasmids encoding eiher DHR23α (EcEcEc), G"E"G or G"E"Ec and E4M-77CO, that contains 4 EREs fused to the MTV promoter. Cells were incubated for 48 hrs with or wihout (-) or with muristerone A (M) or dexamethasone (D).
I then determined if a DHR23 fusion protein could regulate genes normally responsive to estrogens.
Cells were transfected with expression plasmids encoding either DHR23α (EcEcEc), G"E"G or G"E"Ec and E4M-77CO, that contains 4 EREs fused to the MTV promoter. Cells were incubated for 48 hrs with or without (-) or with muristerone A (M) or dexamethasone (D). Reporter gene activity was determined as described above for Figure 2.

The target of another series is T2, GGEc (Drosophila melanogaster, UniProt P34021).
T2 construct: expressed in transfected cells; host or cells: 293 cells
T2 sequence (P34021 329-878): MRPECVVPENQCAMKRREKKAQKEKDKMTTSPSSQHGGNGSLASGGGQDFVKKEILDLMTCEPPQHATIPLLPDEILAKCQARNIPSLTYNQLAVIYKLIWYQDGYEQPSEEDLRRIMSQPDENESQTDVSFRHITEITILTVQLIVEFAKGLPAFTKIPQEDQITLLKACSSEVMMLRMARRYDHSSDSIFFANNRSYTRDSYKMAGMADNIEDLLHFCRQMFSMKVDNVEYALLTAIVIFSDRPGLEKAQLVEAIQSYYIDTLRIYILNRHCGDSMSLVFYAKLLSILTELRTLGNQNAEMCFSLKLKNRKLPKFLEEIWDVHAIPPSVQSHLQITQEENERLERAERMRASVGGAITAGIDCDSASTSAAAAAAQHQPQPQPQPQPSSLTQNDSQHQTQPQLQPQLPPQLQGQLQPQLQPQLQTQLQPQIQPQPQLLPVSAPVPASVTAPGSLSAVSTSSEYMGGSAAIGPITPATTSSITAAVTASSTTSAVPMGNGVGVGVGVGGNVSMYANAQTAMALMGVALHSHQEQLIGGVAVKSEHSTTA
Put plainly: Induction of GRE reporter G4M-77CO by chimeric receptor GGEc in 293 cells. The settings on record: for fold induction: 293 cells, reporter G4M-77CO, normalized to hGH, SD in parentheses. An excerpt: I choose to determine if the ligand-binding domain of DHR23a could be used to regulate the DNA-binding and transactivation domains of the mammalian glucocorticoid receptor for the following reasons. First, in contrast to DHR23α, high affinity DNA-binding sites for the GR have been identified (M. Beato, Cell 56, 335 [1989]) and reporter genes containing these sites are very strongly regulated. Thus, the sensitivity of our assays could be increased. Secondly, these chimeric receptors could be utilized to selectively regulate endogenous genes in mammalian cells in response to ecdysteroids. I constructed a chimeric gene, GGEc, in which the sequences encoding the ligand-binding domain of the GR were replaced with that of DHR23α (Fig. 4A). […] However, expression of the GRE-containing reporter gene was induced more than 700 fold by GGEc in muristerone-treated cells.

Another series addresses T3, GXEc (Drosophila melanogaster, UniProt P34021).
T3 construct: expressed in transfected cells
T3 sequence (P34021 329-878): T2 sequence (P34021 329-878)
The experiment in a line: Reporter OC-33CO lacking lex-operators with GXEc. The settings on record: receptor GXEc, SD in parentheses. An excerpt:
(§1) Such fusion constructs are expected to be useful in regulating the expression of exogenous genes introduced into transgenic mammals or mammalian cells. I next determined if the DHR23α ligand-binding domain could be used to regulate the activity of a DNA-binding domain not normally expressed in mammalian cells. I constructed the chimeric gene GLxEc by replacing the sequences coding for the GR DNA-binding domain in the GGEc fusion with those encoding the DNA-binding domain of the Escherichia coli LexA repressor (J. W. Little and S. A. Hill, Proc. Natl. Acad. Sci. U.S.A. 82, 2301 [1985]) (Fig. 4). A reporter gene, X4C-33CO was constructed that contains 4 copies of a 26-bp lex operator (R. Brent and M. Ptashne, Nature 312, 612 [1984]) at position -33 of the CMV promoter. GLxEc had no effect on the expression of a OC-33CO, a reporter gene lacking the lex operator (Fig. 6B).
(§2) Illustrated in Table 2 is the transcriptional activation by receptor-LexA fusion proteins. Effector plasmids encoding the indicated receptor proteins were transfected with a reporter gene either containing (X4C-33CO) or lacking (OC-33CO) lex-operators. […] The cells were incubated either with (+) or without (-) muristerone A. The fold induction was determined as described previously; the standard deviations are shown in parenthesis.

Another series deals with T4, GXG (Rattus norvegicus, UniProt P06536).
T4 construct: expressed in transfected cells
T4 sequence (P06536 528-795): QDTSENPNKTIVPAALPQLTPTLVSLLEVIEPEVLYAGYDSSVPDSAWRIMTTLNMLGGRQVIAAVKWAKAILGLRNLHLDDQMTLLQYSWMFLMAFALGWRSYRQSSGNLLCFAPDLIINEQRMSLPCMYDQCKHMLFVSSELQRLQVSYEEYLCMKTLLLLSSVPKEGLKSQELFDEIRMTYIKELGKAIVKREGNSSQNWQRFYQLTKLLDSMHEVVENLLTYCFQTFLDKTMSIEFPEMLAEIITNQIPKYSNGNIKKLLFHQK
The experiment in a line: Lex-operator reporter X4C-33CO with GXG. The settings on record: receptor GXG, SD in parentheses.
Description: as §1, §2

The fold induction is the ratio of treated to control signal.

T1 sequence (P19793 whole entry): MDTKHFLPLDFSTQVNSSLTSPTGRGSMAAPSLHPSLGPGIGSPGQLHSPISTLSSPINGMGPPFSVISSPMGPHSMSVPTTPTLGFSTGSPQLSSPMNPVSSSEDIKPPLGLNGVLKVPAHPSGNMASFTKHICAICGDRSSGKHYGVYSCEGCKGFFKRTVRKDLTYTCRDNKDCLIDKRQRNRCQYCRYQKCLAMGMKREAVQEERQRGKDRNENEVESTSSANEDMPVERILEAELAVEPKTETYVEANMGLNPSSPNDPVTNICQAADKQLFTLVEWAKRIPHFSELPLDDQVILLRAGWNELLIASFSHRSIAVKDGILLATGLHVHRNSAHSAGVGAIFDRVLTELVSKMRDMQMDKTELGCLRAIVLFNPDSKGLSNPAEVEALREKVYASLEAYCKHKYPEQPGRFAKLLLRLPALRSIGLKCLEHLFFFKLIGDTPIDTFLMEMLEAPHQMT
T1 sequence (P06536+P34021 fused P06536:G458E/P06536:S459G): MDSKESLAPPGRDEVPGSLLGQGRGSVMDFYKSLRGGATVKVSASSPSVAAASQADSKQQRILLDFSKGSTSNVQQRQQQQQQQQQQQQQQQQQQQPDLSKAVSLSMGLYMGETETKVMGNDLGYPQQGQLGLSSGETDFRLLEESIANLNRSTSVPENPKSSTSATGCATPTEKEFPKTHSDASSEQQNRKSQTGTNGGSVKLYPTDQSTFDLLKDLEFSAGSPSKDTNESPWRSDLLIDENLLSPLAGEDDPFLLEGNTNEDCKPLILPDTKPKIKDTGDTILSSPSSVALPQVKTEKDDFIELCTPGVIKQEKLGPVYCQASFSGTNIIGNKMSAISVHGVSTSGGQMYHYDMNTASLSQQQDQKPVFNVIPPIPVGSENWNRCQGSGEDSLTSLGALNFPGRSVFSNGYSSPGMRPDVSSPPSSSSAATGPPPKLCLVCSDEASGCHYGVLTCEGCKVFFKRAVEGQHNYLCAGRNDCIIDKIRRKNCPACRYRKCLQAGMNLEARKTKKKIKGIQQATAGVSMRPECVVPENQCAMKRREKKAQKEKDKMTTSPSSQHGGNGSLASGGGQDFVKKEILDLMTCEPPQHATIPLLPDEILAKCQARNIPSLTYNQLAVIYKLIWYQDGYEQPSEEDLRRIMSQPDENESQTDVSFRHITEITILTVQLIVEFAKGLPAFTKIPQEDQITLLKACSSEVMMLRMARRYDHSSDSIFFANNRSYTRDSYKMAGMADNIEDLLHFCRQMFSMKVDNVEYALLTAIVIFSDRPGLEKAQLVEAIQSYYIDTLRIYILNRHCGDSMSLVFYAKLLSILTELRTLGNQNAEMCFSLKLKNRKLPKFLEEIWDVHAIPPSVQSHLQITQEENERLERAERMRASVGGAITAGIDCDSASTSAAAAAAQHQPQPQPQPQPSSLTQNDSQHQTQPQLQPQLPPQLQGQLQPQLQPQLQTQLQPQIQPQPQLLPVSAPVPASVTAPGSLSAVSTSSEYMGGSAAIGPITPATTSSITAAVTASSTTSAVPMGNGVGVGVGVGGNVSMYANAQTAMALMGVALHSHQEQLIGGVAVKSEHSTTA

`CC(C)CCC(O)[C@](C)(O)[C@H]1CC[C@@]2(O)C3=CC(=O)C4(O)CC(O)C(O)C[C@]4(C)[C@H]3C(O)C[C@]12C` (stereo partly shown) [muristerone A, 2,3,5,11,14,20,22-Heptahydroxy-7-cholesten-6-one]: the “regulation of ERE containing reporter gene E4M-77CO” value on G"E"Ec is “regulates the ERE containing reporter gene E4M-77CO in a muristerone-dependent fashion”. For the same molecule, the fold induction result on GGEc is given as “more than 700 fold”; on GGEc (listed as M) it was 798 (57) fold; on GXEc it was 0.9 (0.3) fold; at GXG it was 1.1 (0.2) fold; at GXG (listed as muristerone) it was “not induced”. Also, the “relative efficacies of ecdysteroids as agonists for the chimeric receptor” value at GGEc (GRE reporter G4M-77CO) is reported as “strong”.
